In general, IC50 refers to the midpoint of a concentration-inhibition curve. Read a high IC50 as weaker potency in that assay.

Where a name gives a salt, the structure may show the parent alone.

PRMT5/MEP50 complex, sequence (O14744 whole entry): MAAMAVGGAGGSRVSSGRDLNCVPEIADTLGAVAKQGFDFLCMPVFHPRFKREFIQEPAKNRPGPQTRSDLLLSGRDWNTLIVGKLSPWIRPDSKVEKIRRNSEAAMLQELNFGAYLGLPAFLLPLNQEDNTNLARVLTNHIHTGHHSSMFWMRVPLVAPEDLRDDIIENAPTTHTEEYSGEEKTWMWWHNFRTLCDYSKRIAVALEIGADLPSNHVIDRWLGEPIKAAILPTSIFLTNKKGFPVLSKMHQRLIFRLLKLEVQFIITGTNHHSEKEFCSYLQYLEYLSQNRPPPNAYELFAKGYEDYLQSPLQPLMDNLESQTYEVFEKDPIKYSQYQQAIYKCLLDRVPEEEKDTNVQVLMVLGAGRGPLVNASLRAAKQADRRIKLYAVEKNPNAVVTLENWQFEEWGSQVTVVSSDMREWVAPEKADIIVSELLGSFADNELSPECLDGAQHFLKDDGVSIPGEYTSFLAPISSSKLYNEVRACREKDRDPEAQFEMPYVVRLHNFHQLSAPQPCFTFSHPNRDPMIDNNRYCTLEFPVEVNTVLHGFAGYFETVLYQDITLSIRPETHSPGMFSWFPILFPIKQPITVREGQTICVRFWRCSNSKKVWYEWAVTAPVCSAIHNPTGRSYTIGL
PRMT5/MEP50 complex, sequence (Q9BQA1 whole entry partner): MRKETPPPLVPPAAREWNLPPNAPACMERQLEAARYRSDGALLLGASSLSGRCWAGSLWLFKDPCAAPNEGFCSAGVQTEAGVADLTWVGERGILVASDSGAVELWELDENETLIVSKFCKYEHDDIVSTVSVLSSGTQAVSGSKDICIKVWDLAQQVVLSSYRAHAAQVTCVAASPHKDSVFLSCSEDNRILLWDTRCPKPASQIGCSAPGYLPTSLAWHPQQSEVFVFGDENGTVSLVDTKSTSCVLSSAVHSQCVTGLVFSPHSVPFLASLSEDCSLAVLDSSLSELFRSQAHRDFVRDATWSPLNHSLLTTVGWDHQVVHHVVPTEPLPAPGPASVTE

This test concerns the target PRMT5/MEP50 complex (Homo sapiens (Human), UniProt O14744). As to the kind of experiment: Biochemical assay: PRMT5/MEP50 methylation of histone H4 based AcH4-23, SPA readout. The following applies: PRMT5/MEP50 2.5 nM, 300 nM AcH4-23, 1 μM 3H-SAM. As for the experimental part: Biochemical Assay Protocol
Compounds were solubilized and 3-fold diluted in 100% DMSO. […] Standard reactions were performed in a total volume of 30 μl in assay buffer, with 300 nM histone H4 based AcH4-23 (Anaspec: AS-65002) as substrate. To this was added the PRMT5/MEP50 complex diluted to provide a final assay concentration of 2.5 nM and the compounds were allowed to preincubate for 20 minutes at 37° C. The reaction was initiated by adding S-[3H-methyl]-adenosyl-L-methionine (PerkinElmer: NET155001MC) to final concentration of 1 μM. Following a 30 minutes incubation at 37° C., the reaction was stopped by adding 25 μL of 8M Guanidine HCl. Prepare streptavidin YSI SPA beads (Perkinelmer: RPNQ0012) at 0.3 mg/mL in assay buffer. To each reaction, add 150 μL of SPA beads suspension, and incubated while shaking at room temperature for 30 minutes. The plate was centrifuged at 100×g for 30 second before reading in a scintillation counter. IC50 values were determined by fitting the data to the standard 4 parameters with Hill Slope using GraphPad Prism software.
As for `COC1Cc2cc(Cl)ccc2[C@H]([C@H]2O[C@@H](n3ccc4c(N)ncnc43)[C@H](O)[C@@H]2O)O1` (stereo partly drawn) [Example 42, (2R,3R,4S,5S)-2-(4-amino-7H-pyrrolo[2,3-d]pyrimidin-7-yl)-5-((1R)-6-chloro-3-methoxyisochroman-1-yl)tetrahydrofuran-3,4-diol], the 50% inhibitory concentration (IC50) was 428 nM. The value for `Cc1ncnc2c1ccn2[C@@H]1O[C@H]([C@@H]2OCCc3c2ccc(F)c3F)[C@@H](O)[C@H]1O` [Example 79, (2S,3S,4R,5R)-2-((R)-5,6-difluoroisochroman-1-yl)-5-(4-methyl-7H-pyrrolo[2,3-d]pyrimidin-7-yl)tetrahydrofuran-3,4-diol] was 8.4 nM; that for `Nc1ncnc2c1ccn2[C@@H]1O[C@H]([C@@H]2OC(=O)Cc3cc(Cl)ccc32)[C@@H](O)[C@H]1O` [Example 82, (R)-1-((2S,3S,4R,5R)-5-(4-amino-7H-pyrrolo[2,3-d]pyrimidin-7-yl)-3,4-dihydroxytetrahydrofuran-2-yl)-6-chloroisochroman-3-one] was 585 nM; that for `Nc1ncnc2c1ccn2[C@@H]1C[C@H]([C@H]2OC(=O)c3cc(Cl)ccc32)[C@@H](O)[C@H]1O` [Example 3B, (R)-3-((1S,2R,3S,4R)-4-(4-amino-6H-7I4-pyrrolo[2,3-d]pyrimidin-7-yl)-2,3-dihydroxycyclopentyl)-6-chloroisobenzofuran-1(3H)-one, hydrochloride] was 1020 nM. The value for `Cc1ncnc2c1ccn2[C@@H]1O[C@H]([C@@H]2OCCCc3cc(Cl)ccc32)[C@@H](O)[C@H]1O` [Example 101, (2S,3S,4R,5R)-2-((R)-7-chloro-1,3,4,5-tetrahydrobenzo[c]oxepin-1-yl)-5-(4-methyl-7H-pyrrolo[2,3-d]pyrimidin-7-yl)tetrahydrofuran-3,4-diol] was 1580 nM; that for `Cc1ncnc2c1ccn2[C@@H]1O[C@H]([C@@H]2OC[C@@H](F)c3cc(Cl)ccc32)[C@@H](O)[C@H]1O` [Example 92, (2S,3S,4R,5R)-2-((1R,4S)-6-chloro-4-fluoroisochroman-1-yl)-5-(4-methyl-7H-pyrrolo[2,3-d]pyrimidin-7-yl)tetrahydrofuran-3,4-diol] was 20 nM; that for `Nc1ncnc2c1ccn2[C@@H]1O[C@H]([C@@H]2OC(O)Cc3cc(Cl)ccc32)[C@@H](O)[C@H]1O` (stereo partly drawn) [Example 43, (2R,3R,4S,5S)-2-(4-amino-7H-pyrrolo[2,3-d]pyrimidin-7-yl)-5-((1R)-6-chloro-3-hydroxyisochroman-1-yl)tetrahydrofuran-3,4-diol] was 19 nM. The result for `Cc1ncnc2c1ccn2[C@@H]1O[C@H]([C@H]2OCCc3cc(Cl)ccc32)[C@@H](O)[C@H]1O` [Example 80, (2S,3S,4R,5R)-2-((S)-6-chloroisochroman-1-yl)-5-(4-methyl-7H-pyrrolo[2,3-d]pyrimidin-7-yl)tetrahydrofuran-3,4-diol] reads 1010 nM. Regarding `Nc1ncnc2c1ccn2[C@@H]1O[C@H]([C@H]2OCc3cc(Cl)ccc32)[C@@H](O)[C@H]1O` [Example 1B, (2R,3R,4S,5S)-2-(4-amino-7H-pyrrolo[2,3-d]pyrimidin-7-yl)-5-((S)-5-chloro-1,3-dihydroisobenzofuran-1-yl)tetrahydrofuran-3,4-diol], half-maximal inhibition (IC50) required 270 nM. The result for `Nc1ncnc2c1ccn2[C@@H]1O[C@H]([C@@H]2OCCc3c2ccc(F)c3F)[C@@H](O)[C@H]1O` [Example 77, (2R,3R,4S,5S)-2-(4-amino-7H-pyrrolo[2,3-d]pyrimidin-7-yl)-5-((R)-5,6-difluoroisochroman-1-yl)tetrahydrofuran-3,4-diol] reads 2.82 nM; that for `Nc1ncnc2c1ccn2[C@@H]1O[C@H]([C@@H]2OC[C@@H](F)c3cc(Cl)ccc32)[C@@H](O)[C@H]1O` [Example 93, (2R,3R,4S,5S)-2-(4-aminopyrrolo[2,3-d]pyrimidin-7-yl)-5-[(1R,4S)-6-chloro-4-fluoro-isochroman-1-yl]tetrahydrofuran-3,4-diol], 14 nM; that for `Nc1ncnc2c1ccn2[C@@H]1O[C@H]([C@@H]2OCOCc3cc(Cl)ccc32)[C@@H](O)[C@H]1O` [Example 81, (2R,3R,4S,5S)-2-(4-amino-7H-pyrrolo[2,3-d]pyrimidin-7-yl)-5-((R)-7-chloro-1,5-dihydrobenzo[e][1,3]dioxepin-1-yl)tetrahydrofuran-3,4-diol], 41.5 nM. The value for `Cc1cc2c(cc1Cl)CCO[C@H]2[C@H]1O[C@@H](n2ccc3c(N)ncnc32)[C@H](O)[C@@H]1O` [Example 100, (2R,3R,4S,5S)-2-(4-amino-7H-pyrrolo[2,3-d]pyrimidin-7-yl)-5-((R)-6-chloro-7-methylisochroman-1-yl)tetrahydrofuran-3,4-diol] was 5.6 nM; that for `Cc1ncnc2c1ccn2[C@@H]1O[C@H]([C@@H]2OCc3ccc(Cl)cc32)[C@@H](O)[C@H]1O` [Example 15, (2S,3S,4R,5R)-2-((R)-6-chloro-1,3-dihydroisobenzofuran-1-yl)-5-(4-methyl-7H-pyrrolo[2,3-d]pyrimidin-7-yl)tetrahydrofuran-3,4-diol] was 1 nM; that for `Cc1cc2c(cc1Cl)CCO[C@H]2[C@H]1O[C@@H](n2ccc3c(C)ncnc32)[C@H](O)[C@@H]1O` [Example 99, (2S,3S,4R,5R)-2-((R)-6-chloro-7-methylisochroman-1-yl)-5-(4-methyl-7H-pyrrolo[2,3-d]pyrimidin-7-yl)tetrahydrofuran-3,4-diol] was 39.6 nM. The value for `Cc1ncnc2c1ccn2[C@@H]1O[C@H]([C@@H]2OCC(F)(F)c3ccccc32)[C@@H](O)[C@H]1O` [Example 76, (2S,3S,4R,5R)-2-((R)-4,4-difluoroisochroman-1-yl)-5-(4-methyl-7H-pyrrolo[2,3-d]pyrimidin-7-yl)tetrahydrofuran-3,4-diol] was 81 nM; that for `Nc1ncnc2c1ccn2[C@@H]1C[C@H]([C@H]2OCc3cc(Cl)ccc32)[C@@H](O)[C@H]1O` [Example 2A, (1R,2S,3R,5S)-3-(4-amino-7H-pyrrolo[2,3-d]pyrimidin-7-yl)-5-((R)-5-chloro-1,3-dihydroisobenzofuran-1-yl)cyclopentane-1,2-diol] was 680 nM; that for `Nc1ncnc2c1ccn2[C@@H]1O[C@H]([C@H]2OCCc3cc(Cl)sc32)[C@@H](O)[C@H]1O` [Example 91, (2R,3R,4S,5S)-2-(4-amino-7H-pyrrolo[2,3-d]pyrimidin-7-yl)-5-((R)-2-chloro-4,7-dihydro-5H-thieno[2,3-c]pyran-7-yl)tetrahydrofuran-3,4-diol] was 554 nM. With `COC1Cc2cc(Cl)ccc2[C@H]([C@H]2O[C@@H](n3ccc4c(C)ncnc43)[C@H](O)[C@@H]2O)O1` (stereo partly drawn) [Example 44, (2S,3S,4R,5R)-2-((1R)-6-chloro-3-methoxyisochroman-1-yl)-5-(4-methyl-7H-pyrrolo[2,3-d]pyrimidin-7-yl)tetrahydrofuran-3,4-diol], the IC50 was 606 nM.

The compound `Nc1ncnc2c1ccn2[C@@H]1O[C@H]([C@@H]2OCCCc3cc(Cl)ccc32)[C@@H](O)[C@H]1O` [Example 102, (2R,3R,4S,5S)-2-(4-amino-6H-7I4-pyrrolo[2,3-d]pyrimidin-7-yl)-5-((R)-7-chloro-1,3,4,5-tetrahydrobenzo[c]oxepin-1-yl)tetrahydrofuran-3,4-diol, hydrochloride] showed an IC50 of 6280 nM. `Cc1ncnc2c1ccn2[C@@H]1O[C@H]([C@@H]2OC[C@H](F)c3cc(Cl)ccc32)[C@@H](O)[C@H]1O` [Example 94, (2R,3R,4S,5S)-2-(4-methylpyrrolo[2,3-d]pyrimidin-7-yl)-5-[(1R,4R)-6-chloro-4-fluoro-isochroman-1-yl]tetrahydrofuran-3,4-diol] displayed an IC50 of 3.2 nM. The result for `Nc1ncnc2c1ccn2[C@@H]1O[C@H]([C@@H]2OCC(F)(F)c3ccccc32)[C@@H](O)[C@H]1O` [Example 78, (2R,3R,4S,5S)-2-(4-amino-7H-pyrrolo[2,3-d]pyrimidin-7-yl)-5-((R)-4,4-difluoroisochroman-1-yl)tetrahydrofuran-3,4-diol] reads 6.7 nM; that for `Cc1ncnc2c1ccn2[C@@H]1O[C@H]([C@@H]2OC(O)Cc3cc(Cl)ccc32)[C@@H](O)[C@H]1O` (stereo partly drawn) [Example 50, (2S,3S,4R,5R)-2-((1R)-6-chloro-3-hydroxyisochroman-1-yl)-5-(4-methyl-7H-pyrrolo[2,3-d]pyrimidin-7-yl)tetrahydrofuran-3,4-diol], 59 nM.

Values taken from patent publication US10711007B2, “Selective inhibitors of protein arginine methyltransferase 5 (PRMT5)” (Prelude Therapeutics, Incorporated, priority 2018, dated 2020).
